In patent publication US20160214996A1, “MACROCYCLIC COMPOUNDS FOR THE TREATMENT OF PROLIFERATIVE DISEASES” (CS Pharmasciences, Inc., priority 2013, published 2016):

Assays:
ALK wild type = biological target: T1, ALK wild type (Homo sapiens, UniProt Q9UM73); experiment: ALK wild type standard HTRF enzyme assay; type: biochemical; settings: 0.5 nM ALK wild type, 30 μM ATP, 90 minutes at room temperature, read-out: IC50 (nM) ALK_wt
T1 construct: purchased Carna Biosciences (Japan)
Description: (§1) Wild type ALK and L1196M mutant ALK enzyme inhibition by the compounds of formula (I) was measured using an HTRF assay.
(§2) ALK wild type and ALK L1196M were acquired from Carna Biosciences (Japan). A standard HTRF kit (containing Eu-labeled TK1 antibody, XL665, biotin conjugated TK1 peptide, 5× enzymatic buffer and 1×HTRF detection buffer) were purchased from Cis-Bio International. Plates were read on an Envision multi-label plate reader (Perkin Elmer).
(§3) In both assays, the compounds were tested in 11 doses in duplicate with 3-fold dilution as the final concentrations were from 10 μM to 0.17 nM. Compound 13a was tested with lower top concentrations of 1 μM due to high potency.
The enzyme reaction mixture of ALK wild type standard HTRF assay contained 0.5 nM ALK wild type, 1 μM biotin-TK1 peptide, 30 μM ATP and 50 nM SEB in 1× enzymatic reaction buffer containing 50 mM (pH 7.0) HEPES, 5 mM MgCl2, 0.02% NaN3, 0.01% BSA, 0.1 mM Orthovanadate and 1 mM DTT at a final volume of 10 μl. The enzyme reaction was carried out at room temperature in white Proxiplate 384-Plus plate (PerkinElmer) for 90 minutes.
(§4) The detection reagents ([…]) were added at final concentrations of 2 nM antibody and 62.5 nM XL665. The plates were incubated at room temperature for 60 minutes and then read in the Envision plate reader.
(§5) The readouts were transformed into inhibition rate % by the equation of (Ratio-Min)/(Max-Min)*100%.

ALK L1196M = biological target: T2, ALK L1196M (Homo sapiens, UniProt Q9UM73, L1196M); experiment: ALK L1196M standard HTRF enzyme assay; type: biochemical; settings: 0.15 nM ALK L1196M, 30 μM ATP, 60 minutes at room temperature, read-out: IC50 (nM) ALK_L1196M
T2 construct: purchased Carna Biosciences (Japan)
Description: as §1, §2, §3
[…]. The enzyme reaction was carried out at room temperature in white Proxiplate 384-Plus plate (PerkinElmer) for 60 minutes.
as §4, §5

T1 sequence (Q9UM73 19-1620): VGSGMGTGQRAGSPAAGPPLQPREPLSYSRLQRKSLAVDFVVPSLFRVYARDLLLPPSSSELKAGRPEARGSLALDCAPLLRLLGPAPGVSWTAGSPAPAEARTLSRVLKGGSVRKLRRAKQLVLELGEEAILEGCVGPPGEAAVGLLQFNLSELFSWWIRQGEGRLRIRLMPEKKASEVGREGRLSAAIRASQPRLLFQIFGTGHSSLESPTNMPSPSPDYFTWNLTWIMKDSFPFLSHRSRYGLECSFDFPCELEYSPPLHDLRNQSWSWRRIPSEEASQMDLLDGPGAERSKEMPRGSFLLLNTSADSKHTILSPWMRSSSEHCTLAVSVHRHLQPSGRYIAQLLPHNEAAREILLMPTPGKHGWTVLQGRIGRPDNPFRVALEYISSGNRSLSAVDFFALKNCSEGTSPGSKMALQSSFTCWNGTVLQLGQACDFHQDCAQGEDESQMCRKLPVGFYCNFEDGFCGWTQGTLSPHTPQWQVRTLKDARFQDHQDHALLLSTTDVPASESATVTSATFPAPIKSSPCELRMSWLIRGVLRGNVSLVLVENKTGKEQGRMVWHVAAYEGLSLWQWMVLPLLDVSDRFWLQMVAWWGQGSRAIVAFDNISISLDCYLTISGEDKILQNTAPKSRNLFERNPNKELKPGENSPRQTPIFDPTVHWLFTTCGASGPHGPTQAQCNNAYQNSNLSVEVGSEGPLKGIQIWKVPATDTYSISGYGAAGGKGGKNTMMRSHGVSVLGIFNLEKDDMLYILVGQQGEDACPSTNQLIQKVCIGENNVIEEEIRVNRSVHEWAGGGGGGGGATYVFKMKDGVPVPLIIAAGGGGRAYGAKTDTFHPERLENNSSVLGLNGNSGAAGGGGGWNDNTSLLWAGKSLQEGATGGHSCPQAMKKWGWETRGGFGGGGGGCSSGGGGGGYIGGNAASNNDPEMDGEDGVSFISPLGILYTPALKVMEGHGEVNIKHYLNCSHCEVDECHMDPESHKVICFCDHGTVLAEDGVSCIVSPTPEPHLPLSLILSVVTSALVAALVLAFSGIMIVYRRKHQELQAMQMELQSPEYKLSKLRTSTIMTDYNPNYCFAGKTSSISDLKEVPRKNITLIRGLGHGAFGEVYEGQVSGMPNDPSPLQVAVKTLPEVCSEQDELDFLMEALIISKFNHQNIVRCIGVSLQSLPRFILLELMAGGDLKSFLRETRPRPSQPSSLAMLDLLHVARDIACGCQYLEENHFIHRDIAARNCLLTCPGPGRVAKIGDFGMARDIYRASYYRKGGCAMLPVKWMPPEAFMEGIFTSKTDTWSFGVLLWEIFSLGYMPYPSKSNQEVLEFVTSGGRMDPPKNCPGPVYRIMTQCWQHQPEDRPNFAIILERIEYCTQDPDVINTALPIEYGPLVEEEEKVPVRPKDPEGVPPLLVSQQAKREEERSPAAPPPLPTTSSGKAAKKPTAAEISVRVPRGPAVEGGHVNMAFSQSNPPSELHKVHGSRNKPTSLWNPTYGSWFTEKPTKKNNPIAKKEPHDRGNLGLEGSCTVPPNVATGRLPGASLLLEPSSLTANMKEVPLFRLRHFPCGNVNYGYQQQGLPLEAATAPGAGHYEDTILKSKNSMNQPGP
T2 sequence (Q9UM73 19-1620 L1196M): as the sequence (Q9UM73 19-1620) above, with L1178M counted along it

IC50 (ALK wild type)	IC50 (ALK L1196M)	Compound
2370 nM	–	CC1Oc2cc(cnc2N)-c2c(nn(C)c2C#N)NC(=O)COc2ccc(F)cc21 (stereo not shown) [Compound 15]
7430 nM	–	CC1Oc2cc(cnc2N)-c2c(nn(C)c2C#N)N(C)C(=O)COc2ccc(F)cc21 (single isomer, unassigned) [Compound 17]
34.8 nM	529 nM	CC1Oc2cc(cnc2N)-c2c(nn(C)c2C#N)N(C)C(=O)COc2ccc(F)cc21 (single isomer, unassigned) [Compound 16]
